In patent US10508085B2, “Compounds and methods for IDO and TDO modulation, and indications therefor” (Plexxikon Inc., priority 2016, dated 2019):

What was measured:
[1] = molecular target: T1, Human Indoleamine 2,3-dioxygenase (IDO) (Homo sapiens, UniProt P14902); assay: Human IDO enzymatic assay (kynurenine level); type: biochemical; conditions: 6 nM IDO, 10 μM L-Trp; geometric mean; read-out: IDO1 GMean: IC50 (μM) (Biochemical Assay)
T1 construct: His tag (N); made in house; host or cells: E. coli
How it was run: (§1)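 Compound is mixed with His-tagged enzyme from E. coli in pH 6.5 phosphate buffer containing ascorbate, methylene blue and catalase, at room temperature. IDO uses 6 nM enzyme and 10 μM Trp for 20 min. TDO uses 1 nM enzyme and 350 μM Trp for 70 min. TCA stops the reaction, and IC50 is derived from kynurenine levels.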

[2] = molecular target: T2, Human Tryptophan 2,3-dioxygenase (TDO) (Homo sapiens, UniProt P48775); assay: Human TDO enzymatic assay (kynurenine level); type: biochemical; conditions: 1 nM TDO, 350 μM L-Trp; geometric mean; read-out: TDO GMean: IC50 (μM) (Biochemical Assay)
T2 construct: His tag (N); made in house; host or cells: E. coli
How it was run: as §1

[3] = molecular target: T3, human IDO (IDO1-expressing HEK293 cells) (Homo sapiens, UniProt P14902); assay: Cell based kynurenine assay, IDO1-expressing HEK293 cell clones; conditions: IDO1-expressing HEK293 cells, 24 hours incubation; geometric mean; read-out: HEK293 IDO1 Kynurenine GMean IC50 (μM) (Cellular Assay)
T3 construct: expressed in transfected cells
How it was run: (§2)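 HEK293 stable clones (hIDO1 or hTDO, CMV-driven; G418-selected); 2.5×10^4 cells/well; compound serial dilution, 24 h, 37 °C, 5% CO2; supernatant kynurenine; IC50 by nonlinear fit.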

[4] = molecular target: T4, human TDO (TDO-expressing HEK293 cells) (Homo sapiens, UniProt P48775); assay: Cell based kynurenine assay, TDO-expressing HEK293 cell clones; conditions: TDO-expressing HEK293 cells, 24 hours incubation; geometric mean; read-out: HEK293 TDO Kynurenine GMean IC50 (μM) (Cellular Assay)
T4 construct: expressed in transfected cells
How it was run: as §2

T4 sequence (P48775 whole entry): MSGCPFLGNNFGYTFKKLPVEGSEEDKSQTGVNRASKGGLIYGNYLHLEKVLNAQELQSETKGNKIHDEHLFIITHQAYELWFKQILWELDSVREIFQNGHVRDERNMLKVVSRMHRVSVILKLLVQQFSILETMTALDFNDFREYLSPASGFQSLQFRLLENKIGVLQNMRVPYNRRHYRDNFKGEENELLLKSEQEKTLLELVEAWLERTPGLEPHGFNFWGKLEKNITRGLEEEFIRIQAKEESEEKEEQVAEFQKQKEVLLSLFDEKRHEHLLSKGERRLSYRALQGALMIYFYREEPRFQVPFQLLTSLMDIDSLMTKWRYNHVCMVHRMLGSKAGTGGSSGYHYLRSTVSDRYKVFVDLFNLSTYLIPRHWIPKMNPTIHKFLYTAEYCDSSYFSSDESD
T2 sequence (P48775 whole entry): as above
T3 sequence (P14902 whole entry): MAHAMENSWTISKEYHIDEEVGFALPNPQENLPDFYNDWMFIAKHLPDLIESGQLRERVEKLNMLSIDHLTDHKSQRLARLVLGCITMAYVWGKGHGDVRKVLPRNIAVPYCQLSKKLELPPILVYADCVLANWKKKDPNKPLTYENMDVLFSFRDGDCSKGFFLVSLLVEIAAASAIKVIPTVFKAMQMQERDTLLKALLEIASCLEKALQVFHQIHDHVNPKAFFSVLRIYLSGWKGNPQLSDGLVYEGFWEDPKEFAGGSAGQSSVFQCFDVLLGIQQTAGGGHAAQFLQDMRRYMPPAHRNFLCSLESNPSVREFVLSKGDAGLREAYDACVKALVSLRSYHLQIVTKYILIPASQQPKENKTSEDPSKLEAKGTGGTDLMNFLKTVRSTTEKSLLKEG
T1 sequence (P14902 whole entry): as above

SMILES | IC50 [1] [µM] | IC50 [2] [µM] | IC50 [3] [µM] | IC50 [4] [µM]
N#CC1CC=C(c2cc(Cl)cc3cn[nH]c23)CC1 (stereo not drawn) [Compound P-0105, 4-(5-chloro-1H-indazol-7-yl)cyclohex-3-ene-l-carbonitrile] | 0.0001 to 10 | 0.0001 to 10 | 0.0001 to 10 | 0.0001 to 10
O=C1NCCC12CCN(c1cc(Cl)cc3cn[nH]c13)CC2 [Compound P-0111, 8-(5-chloro-1H-indazol-7-yl)-2,8-diazaspiro[4.5]decan-l-one] | 0.0001 to 10 | 0.0001 to 10 | 0.0001 to 10 | 0.0001 to 10
CC1(C(O)c2c(F)c(Cl)c(F)c3cn[nH]c23)CC(F)(F)C1 (stereo not drawn) [Compound P-0112, (5-chloro-4,6-difluoro-1H-indazol-7-yl)(3,3-difluoro-1-methylcyclobutyl)methanol] | 0.0001 to 10 | 0.0001 to 10 | 0.0001 to 10 | 0.0001 to 10
OC1(c2cc(Cl)cc3cn[nH]c23)CC2(C1)C1CC3CC(C1)CC2C3 (stereo not drawn) [Compound P-0113, (1r,3r,5r,7r)-3′-(5-chloro-1H-indazol-7-yl)spiro[adamantane-2,1′-cyclobutan]-3′-ol] | 0.0001 to 10 | 0.0001 to 10 | 0.0001 to 10 | 0.0001 to 10
CC1(C(O)c2c(F)c(Cl)cc3cn[nH]c23)CC(F)(F)C1 (stereo not drawn) [Compound P-0114, (5-chloro-6-fluoro-1H-indazol-7-yl)(3,3-difluoro-1-methylcyclobutyl)methanol] | 0.0001 to 10 | 0.0001 to 10 | 0.0001 to 10 | 0.0001 to 10
CC1(C(O)c2cc(Cl)cc3cn[nH]c23)CCC1 (stereo not drawn) [Compound P-0117, (5-chloro-1H-indazol-7-yl)(1-methylcyclobutyl)methanol] | 0.0001 to 10 | 0.0001 to 10 | 0.0001 to 10 | 0.0001 to 10
CC(C)(C1CCC1)C(O)c1cc(Cl)cc2cn[nH]c12 (stereo not drawn) [Compound P-0118, 1-(5-chloro-1H-indazol-7-yl)-2-cyclobutyl-2-methylpropan-1-ol] | 0.0001 to 10 | 0.0001 to 10 | 0.0001 to 10 | 0.0001 to 10
OC(c1cc(Cl)cc2cn[nH]c12)C1(C(F)(F)F)CCC1 (stereo not drawn) [Compound P-0120, (5-chloro-1H-indazol-7-yl)(1-(trifluoromethyl)cyclobutyl)methanol] | 0.0001 to 10 | 0.0001 to 10 | 0.0001 to 10 | 0.0001 to 10
CCCC1(C(O)c2cc(Cl)cc3cn[nH]c23)CCC1 (stereo not drawn) [Compound P-0121, (5-chloro-1H-indazol-7-yl)(1-propylcyclobutyl)methanol] | 0.0001 to 10 | 0.0001 to 10 | 0.0001 to 10 | 0.0001 to 10
CC1(C(O)c2c(F)c(Cl)c(F)c3cn[nH]c23)CCCCC1 (stereo not drawn) [Compound P-0123, (5-chloro-4,6-difluoro-1H-indazol-7-yl)(1-methylcyclohexyl)methanol] | 0.0001 to 10 | 0.0001 to 10 | 0.0001 to 10 | 0.0001 to 10
CNC(=O)N1CC2CCC(C1)C2CC(O)c1cc(Cl)cc2cn[nH]c12 (stereo not drawn) [Compound P-0127, 8-(2-(5-chloro-1H-indazol-7-yl)-2-hydroxyethyl)-N-methyl-3-azabicyclo[3.2.l]octane-3-carboxamide] | 0.0001 to 10 | 0.0001 to 10 | 0.0001 to 10 | 0.0001 to 10
CC(=O)N1CCC(C2(C(O)c3cc(Cl)cc4cn[nH]c34)CC2)CC1 (stereo not drawn) [Compound P-0130, 1-(4-(1-((5-chloro-1H-indazol-7-yl)(hydroxy)methyl)cyclopropyl)piperidin-1-yl)ethan-l-one] | 0.0001 to 10 | 0.0001 to 10 | 0.0001 to 10 | 0.0001 to 10
CS(=O)(=O)N1C[C@H]2CC[C@@H](C1)[C@H]2C(F)(F)C(O)c1cc(Cl)cc2cn[nH]c12 (stereo partly drawn) [Compound P-0131, 1-(5-chloro-1H-indazol-7-yl)-2,2-difluoro-2-((1R,5S,8s)-3-(methylsulfonyl)-3-azabicyclo[3.2.l]octan-8-yl)ethan-l-ol] | 0.0001 to 10 | 0.0001 to 10 | 0.0001 to 10 | 0.0001 to 10
CNC(=O)N1CCC(C2(C(O)c3cc(Cl)cc4cn[nH]c34)CC2)CC1 (stereo not drawn) [Compound P-0134, 4-(1-((5-chloro-1H-indazol-7-yl)(hydroxy)methyl)cyclopropyl)-N-methylpiperidine-1-carboxamide] | 0.0001 to 10 | 0.0001 to 10 | 0.0001 to 10 | 0.0001 to 10

Continued, values first:

IC50 [1] [µM] | IC50 [2] [µM] | IC50 [3] [µM] | IC50 [4] [µM] | SMILES
0.0001 to 10 | 0.0001 to 10 | 0.0001 to 10 | 0.0001 to 10 | CC1(C(O)c2c3c(cc4cn[nH]c24)CCC3)CCCCC1 (stereo not drawn) [Compound P-0099, (1-methylcyclohexyl)(1,5,6,7-tetrahydrocyclopenta[f]indazol-8-yl)methanol]
0.0001 to 10 | 0.0001 to 10 | 0.0001 to 10 | 0.0001 to 10 | OC1(c2cc(Cl)cc3cn[nH]c23)CC2(C1)[C@H]1C[C@@H]3C[C@@H](C[C@H]2C3)C1 (stereo partly drawn) [Compound P-0100, (1R,5S)-3′-(5-chloro-1H-indazol-7-yl)spiro[adamantane-2,1′-cyclobutan]-3′-ol]
0.0001 to 10 | 0.0001 to 10 | 0.0001 to 10 | 0.0001 to 10 | COc1cc(C(O)C2(C)CCCCC2)c2[nH]ncc2c1 (stereo not drawn) [Compound P-0115, (5-methoxy-1H-indazol-7-yl)(1-methylcyclohexyl)methanol]
0.0001 to 10 | 0.0001 to 10 | 0.0001 to 10 | 0.0001 to 10 | OC(c1cc(Cl)cc2cn[nH]c12)C1CCC1 (stereo not drawn) [Compound P-0116, (5-chloro-1H-indazol-7-yl)(cyclobutyl)methanol]
0.0001 to 10 | 0.0001 to 10 | 0.0001 to 10 | 0.0001 to 10 | OC(c1cc(Cl)cc2cn[nH]c12)C1(C(F)(F)F)CC1 (stereo not drawn) [Compound P-0119, (5-chloro-1H-indazol-7-yl)(1-(trifluoromethyl)cyclopropyl)methanol]
0.0001 to 10 | 0.0001 to 10 | 0.0001 to 10 | 0.0001 to 10 | CC(=O)N1CCC(C(F)(F)C(O)c2c(F)c(Cl)cc3cn[nH]c23)CC1 (stereo not drawn) [Compound P-0128, 1-(4-(2-(5-chloro-6-fluoro-1H-indazol-7-yl)-1,1-difluoro-2-hydroxyethyl)piperidin-1-yl)ethan-l-one]
0.0001 to 10 | 0.0001 to 10 | 0.0001 to 10 | 0.0001 to 10 | CC(=O)N1CCC(C(F)(F)C(O)c2c3c(cc4cn[nH]c24)CC3)CC1 (stereo not drawn) [Compound P-0129, 1-(4-(2-(5,6-dihydro-1H-cyclobuta[f]indazol-7-yl)-1,1-difluoro-2-hydroxyethyl)piperidin-1-yl)ethan-l-one]
0.0001 to 10 | 0.0001 to 10 | 0.0001 to 10 | 0.0001 to 10 | CS(=O)(=O)N1C[C@H]2CC[C@@H](C1)[C@@H]2C(F)(F)C(O)c1cc(Cl)cc2cn[nH]c12 (stereo partly drawn) [Compound P-0132, 1-(5-chloro-1H-indazol-7-yl)-2,2-difluoro-2-((1R,5S,8r)-3-(methylsulfonyl)-3-azabicyclo[3.2.l]octan-8-yl)ethan-l-ol]
0.0001 to 10 | 0.0001 to 10 | 0.0001 to 10 | 0.0001 to 10 | OC(c1cc(Cl)cc2cn[nH]c12)C12CCC(O)(CC1)CC2 (stereo not drawn) [Compound P-0133, 4-((5-chloro-1H-indazol-7-yl)(hydroxy)methyl)bicyclo[2.2.2]octan-1-ol]
0.0001 to 10 | 0.0001 to 10 | 0.0001 to 10 | 0.0001 to 10 | OC(c1cc(Cl)c(F)c2cn[nH]c12)C12CCC(CC1)CC2 (stereo not drawn) [Compound P-0135, bicyclo[2.2.2]octan-1-yl(5-chloro-4-fluoro-1H-indazol-7-yl)methanol]
